Values of other authors in patent US20040038429A1, “Method of searching for novel lead compound” (priority 2000, published 2004).
Where two headings read alike, the source gives them in different places.

Assays:
[1] = target: Thrombin (Homo sapiens, UniProt P00734)
[2] = target: T1, Trypsin (Bos taurus, UniProt P00760)
T1 construct: gene PRSS1

[3] = target: 5-HT4 (Homo sapiens, UniProt Q13639)
Sequence of 5-HT4 (Q13639 whole entry, species assumed): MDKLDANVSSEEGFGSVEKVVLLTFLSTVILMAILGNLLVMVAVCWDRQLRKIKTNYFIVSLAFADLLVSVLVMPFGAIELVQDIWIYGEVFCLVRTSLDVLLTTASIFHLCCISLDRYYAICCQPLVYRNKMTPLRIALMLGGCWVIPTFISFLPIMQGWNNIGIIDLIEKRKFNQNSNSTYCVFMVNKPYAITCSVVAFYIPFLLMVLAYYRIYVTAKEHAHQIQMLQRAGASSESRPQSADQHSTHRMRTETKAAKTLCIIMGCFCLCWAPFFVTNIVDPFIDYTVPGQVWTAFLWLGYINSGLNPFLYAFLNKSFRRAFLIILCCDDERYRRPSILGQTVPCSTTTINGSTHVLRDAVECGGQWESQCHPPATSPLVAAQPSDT

T1 sequence (P00760 24-246): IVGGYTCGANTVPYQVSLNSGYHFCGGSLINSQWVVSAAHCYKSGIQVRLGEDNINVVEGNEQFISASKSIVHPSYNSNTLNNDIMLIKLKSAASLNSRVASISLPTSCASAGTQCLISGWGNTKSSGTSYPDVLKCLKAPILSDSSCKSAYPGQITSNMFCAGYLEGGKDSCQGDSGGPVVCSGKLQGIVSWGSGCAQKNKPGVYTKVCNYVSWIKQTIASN

Row | Known bioactivity ([1]; thrombin) | Known bioactivity [1] | Compound | other results
1 | Thrombin substrate |  | COC(=O)[C@H](CCCCN)NS(=O)(=O)c1ccc(C)cc1.Cl | 
2 |  |  | Cc1ccc(S(=O)(=O)N[C@@H](CCCCN)C(=O)CCl)cc1.Cl | Known bioactivity [2]: Trypsin inhibitor
3 |  |  | Cc1ccc(S(=O)(=O)N[C@@H](CCCCN)C(=O)CCl)cc1 | Known bioactivity [2]: Trypsin inhibitor
4 |  |  | COc1cc(N)c(Cl)cc1C(=O)CCC1CCN(CCNS(C)(=O)=O)CC1 | Known bioactivity [3]: 5-HT4 Partial agonist
5 |  | Thrombin inhibitor | CC(=O)O.N=C(N)c1ccc(CC(NC(=O)CNS(=O)(=O)c2ccc3ccccc3c2)C(=O)N2CCCCC2)cc1 (stereo not shown) | 
6 | Thrombin substrate |  | COC(=O)[C@H](CCCCN)NS(=O)(=O)c1ccc(C)cc1 | 
7 | thrombin inhibitors |  | Cc1ccc(S(=O)(=O)NC(Cc2ccc(C(=N)N)cc2)C(=O)N2CCCCC2)cc1 (racemic) [4-TAPAP, Nα-(4-toluene-sulfonyl)-DL-p-amidinophenylalanyl-piperidine, reference compound] | 
8 | thrombin inhibitors |  | C[C@@H]1CCN(C(=O)[C@H](CCCNC(=N)N)NS(=O)(=O)c2cccc3c2NC[C@H](C)C3)[C@@H](C(=O)O)C1 [MQPA, (2R,4R)-4-methyl-1-[Nα-(3-methyl-1,2,3,4-tetrahydro-8-quinolinesulfonyl)-L-arginyl]-2-piperidinecarboxylic acid, reference compound] | 
9 |  | Thrombin inhibitor | N=C(N)c1ccc(CC(NC(=O)CNS(=O)(=O)c2ccc3ccccc3c2)C(=O)N2CCCCC2)cc1 (stereo not shown) [drawing 16] | 
10 | Thrombin inhibitor |  | CCC1CCCN(C(=O)[C@H](CCCNC(=N)N)NS(=O)(=O)c2cccc3c(N(C)C)cccc23)C1 (stereo partly shown) [drawing 26] | 
11 |  | Thrombin inhibitor | N=C(N)c1ccc(CC(NC(=O)CNS(=O)(=O)c2ccc3ccccc3c2)C(=O)N2CCCCC2)cc1 (stereo not shown) [drawing 31] | 
12 | Thrombin inhibitor |  | CCC1CCCN(C(=O)[C@H](CCCNC(=N)N)NS(=O)(=O)c2cccc3c(N(C)C)cccc23)C1 (stereo partly shown) [drawing 32] | 
13 |  | Thrombin inhibitor | N=C(N)c1ccc(CC(NC(=O)CNS(=O)(=O)c2ccc3ccccc3c2)C(=O)N2CCCCC2)cc1 (stereo not shown) [drawing 33] | 
